Assay results as given in PMC6028563, “Probing Substituents in the 1- and 3-Position: Tetrahydropyrazino-Annelated Water-Soluble Xanthine Derivatives as Multi-Target Drugs With Potent Adenosine Receptor Antagonistic Activity” (Frontiers in Chemistry, 2018).
Where two headings read alike, the source gives them in different places.

Legend:
human A1 AR = target: T1, human A1 AR (Homo sapiens, UniProt P30542); assay: Radioligand binding assay at human A1 AR vs. [^3H]CCPA; settings: for Ki: human (h), CHO cell membranes, n = 3
T1 construct: expressed in transfected cells; host or cells: CHO cells
T1 sequence (P30542 1-326): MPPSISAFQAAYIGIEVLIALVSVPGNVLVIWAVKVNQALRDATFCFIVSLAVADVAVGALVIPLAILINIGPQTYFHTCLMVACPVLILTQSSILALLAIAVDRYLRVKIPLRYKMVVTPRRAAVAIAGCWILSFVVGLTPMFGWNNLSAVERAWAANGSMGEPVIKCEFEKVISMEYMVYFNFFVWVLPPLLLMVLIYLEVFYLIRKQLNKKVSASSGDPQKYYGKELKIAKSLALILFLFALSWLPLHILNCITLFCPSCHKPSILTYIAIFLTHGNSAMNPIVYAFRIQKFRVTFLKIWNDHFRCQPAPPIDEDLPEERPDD
Procedure, shortened: (§1)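 Source of receptor: rat brain cortex (A1), rat brain striatum (A2A), recombinant CHO cell membranes (human subtypes). Binding only.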

recombinant human MAO-A = target: T2, recombinant human MAO-A (Homo sapiens, UniProt P21397); assay: Monoamine oxidase assay (Amplex Red), MAO-A; assay type: biochemical; settings: for inhibition at 10 µM: at 10,000 nM, read-out: % inhibition at indicated concentration, Human MAO-A; for IC50: n = 3, read-out: IC50 ± SEM, Human MAO-A
T2 construct: purchased Sigma-Aldrich M7316; host or cells: baculovirus-infected insect cells
T2 sequence (P21397 1-527): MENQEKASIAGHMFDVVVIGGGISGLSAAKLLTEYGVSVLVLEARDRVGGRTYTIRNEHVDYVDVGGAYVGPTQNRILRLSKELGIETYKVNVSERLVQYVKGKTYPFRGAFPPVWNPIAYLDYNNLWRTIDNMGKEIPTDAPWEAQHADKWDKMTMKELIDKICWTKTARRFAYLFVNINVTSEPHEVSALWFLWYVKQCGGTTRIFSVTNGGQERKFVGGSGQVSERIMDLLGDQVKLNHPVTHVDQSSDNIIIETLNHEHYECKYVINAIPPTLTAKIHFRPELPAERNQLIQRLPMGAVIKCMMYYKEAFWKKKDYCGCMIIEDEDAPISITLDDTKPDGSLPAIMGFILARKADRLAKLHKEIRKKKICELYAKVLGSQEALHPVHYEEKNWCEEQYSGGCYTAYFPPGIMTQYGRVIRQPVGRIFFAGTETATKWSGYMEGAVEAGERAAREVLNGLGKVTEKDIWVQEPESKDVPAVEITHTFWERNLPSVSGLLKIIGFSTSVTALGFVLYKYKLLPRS
Procedure, shortened: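 Inhibition was measured with an Amplex Red monoamine oxidase assay, using human MAO-A and MAO-B produced recombinantly in baculovirus-infected insect cells. For rat MAO-B, liver mitochondria-enriched fractions from male Sprague Dawley rats served as enzyme source.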

human A2A AR = target: T3, human A2A AR (Homo sapiens, UniProt P29274); assay: Radioligand binding assay at human A2A AR vs. [^3H]MSX-2; settings: CHO cell membranes, n = 3, read-out: Ki ± SEM, A2A vs. [^3H]MSX-2
T3 construct: expressed in transfected cells; host or cells: CHO cells
T3 sequence (P29274 whole entry): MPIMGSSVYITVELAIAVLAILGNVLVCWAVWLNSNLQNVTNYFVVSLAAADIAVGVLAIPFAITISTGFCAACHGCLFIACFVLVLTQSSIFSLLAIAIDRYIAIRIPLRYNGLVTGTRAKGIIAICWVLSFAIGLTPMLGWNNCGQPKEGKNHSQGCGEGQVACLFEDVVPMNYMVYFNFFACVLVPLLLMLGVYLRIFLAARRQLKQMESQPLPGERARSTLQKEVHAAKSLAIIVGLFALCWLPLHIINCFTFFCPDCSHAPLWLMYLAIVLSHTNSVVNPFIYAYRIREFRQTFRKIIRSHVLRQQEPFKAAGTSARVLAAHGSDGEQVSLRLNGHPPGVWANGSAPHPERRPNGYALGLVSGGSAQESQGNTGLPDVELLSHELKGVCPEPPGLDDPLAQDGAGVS
Procedure, shortened: as §1

[1] = Thermodynamic solubility measurements; assay type: physicochemical; settings: thermodynamic from solid
Source text: This is expected to facilitate dissolution in the stomach. Depending on the substitution pattern they may also be well soluble at higher pH values (Brunschweiger et al., [2014]). In the present study we measured thermodynamic solubility of only very few compounds exemplarily (14a-e, 14g, 15f,g) and confirmed their high solubility at pH 1 (see Table S1 in Supplementary Material). Most of these compounds were still soluble at pH 7.4. The best soluble derivative was the 3-ethyl-1-methyl-8-m-fluorobenzyl derivative 14g with solubilities of >1.5 g/L (4.2 mM) at pH 1, 50 mg/L (0.14 mM) at pH 4, and 40 mg/L ([…]) at pH 7.4.
Table S1. Solubility of selected compounds at three different pH values (in mg/mL).a
Compound pH 1 pH 4 pH 7.4
adetermined by thermodynamic solubility measurements.

[2] = aqueous buffer, pH 4, thermodynamic solubility, read-out: Solubility, pH 4
[3] = aqueous buffer, pH 7.4, thermodynamic solubility, read-out: Solubility, pH 7.4
[4] = simulated gastric fluid, pH 1, thermodynamic solubility, read-out: Solubility, pH 1

| Structure (SMILES) | Ki (human A1 AR) [nM] | inhibition at 10 µM (recombinant human MAO-A) [%] | IC50 (recombinant human MAO-A) [nM] | Ki (human A2A AR) [nM] | further results |
| --- | --- | --- | --- | --- | --- |
| CCn1c(=O)c2c(nc3n2CCN(Cc2cccc(C(F)(F)F)c2F)C3)n(C)c1=O [Compound 14l, 3-ethyl-8-(2-fluoro-3-(trifluoromethyl)benzyl)-1-methyl-6,7,8,9-tetrahydropyrazino[2,1-f]purine-2,4(1H,3H)-dione] | 495 ± 80 | 8 | > 10000 | 2020 | – |
| CCn1c(=O)c2c(nc3n2CCN(Cc2cc(C(F)(F)F)ccc2Cl)C3)n(C)c1=O [Compound 14m, 8-(2-chloro-5-(trifluoromethyl)benzyl)-3-ethyl-1-methyl-6,7,8,9-tetrahydropyrazino[2,1-f]purine-2,4(1H,3H)-dione] | 55.9 ± 8.3 | 9 | > 10000 | 881 ± 96 | selectivity for the human A1 vs. the human A2A AR (human A1 AR; ratio of Ki values, human receptors): 16 fold |
| CCn1c(=O)c2c(nc3n2CCN(Cc2cc(F)c(F)c(F)c2)C3)n(CC)c1=O [Compound 15r, 1,3-diethyl-8-(3,4,5-trifluorobenzyl)-6,7,8,9-tetrahydropyrazino[2,1-f]purine-2,4(1H,3H)-dione] | 1190 | 7 | > 10000 | 4110 | – |
| CCn1c(=O)n(C)c(=O)c2c1nc1n2CCN(Cc2cc(Cl)cc(Cl)c2)C1 [Compound 16b, 8-(3,5-dichlorobenzyl)-1-ethyl-3-methyl-6,7,8,9-tetrahydropyrazino[2,1-f]purine-2,4(1H,3H)-dione] | 143 ± 16 | 8 | > 10000 | 2230 | – |
| CCn1c(=O)c2c(nc3n2CCN(Cc2ccc(F)c(Br)c2)C3)n(CC)c1=O [Compound 15k, 8-(3-bromo-4-fluorobenzyl)-1,3-diethyl-6,7,8,9-tetrahydropyrazino[2,1-f]purine-2,4(1H,3H)-dione] | 362 ± 98 | -10 | > 10000 | 756 ± 271 | – |
| CCn1c(=O)c2c(nc3n2CCN(Cc2cc(Cl)ccc2Cl)C3)n(C)c1=O [Compound 14j, 8-(2,5-dichlorobenzyl)-3-ethyl-1-dimethyl-6,7,8,9-tetrahydropyrazino[2,1-f]purine-2,4(1H,3H)-dione] | 391 ± 77 | 23 | > 10000 | 906 ± 73 | – |
| C#CCn1c(=O)c2c(nc3n2CCN(c2cccc(OC)c2)C3)n(CC)c1=O [Compound 20c, 1-ethyl-8-(3-methoxyphenyl)-3-propargyl-6,7,8,9-tetrahydropyrazino[2,1-f]purine-2,4(1H,3H)-dione] | 946 ± 166 | 6 | > 10000 | 289 ± 85 | – |
| CCn1c(=O)c2c(nc3n2CCN(Cc2cc(Cl)cc(Cl)c2)C3)n(CC)c1=O [Compound 15m, 8-(3,5-dichlorobenzyl)-1,3-diethyl-6,7,8,9-tetrahydropyrazino[2,1-f]purine-2,4(1H,3H)-dione] | 207 ± 48 | 1 | > 10000 | 631 ± 122 | – |
| CCn1c(=O)c2c(nc3n2CCN(Cc2cc(Br)ccc2F)C3)n(CC)c1=O [Compound 15l, 8-(5-bromo-2-fluorobenzyl)-1,3-diethyl-6,7,8,9-tetrahydropyrazino[2,1-f]purine-2,4(1H,3H)-dione] | 75.4 ± 16.1 | 8 | > 10000 | 598 ± 92 | – |
| CCn1c(=O)c2c(nc3n2CCN(Cc2cc(C(F)(F)F)ccc2Cl)C3)n(CC)c1=O [Compound 15n, 8-(2-chloro-5-(trifluoromethyl)benzyl)-1,3-diethyl-6,7,8,9-tetrahydropyrazino[2,1-f]purine-2,4(1H,3H)-dione] | 22.6 ± 2.7 | -4 | > 10000 | 613 ± 34 | – |
| CCn1c(=O)c2c(nc3n2CCN(Cc2cccc(Br)c2)C3)n(C)c1=O [Compound 14b, 8-(3-bromobenzyl)-3-ethyl-1-methyl-6,7,8,9-tetrahydropyrazino[2,1-f]purine-2,4(1H,3H)-dione] | 70.7 ± 12.3 | – | – | – | solubility [1, 2]: 1 µg/mL; solubility [1, 3]: 0.9 µg/mL; solubility [1, 4]: 100 µg/mL |
| CCn1c(=O)c2c(nc3n2CCN(Cc2ccccc2C(F)(F)F)C3)n(C)c1=O [Compound 14d, 3-ethyl-1-methyl-8-(2-(trifluoromethyl)benzyl)-6,7,8,9-tetrahydropyrazino[2,1-f]purine-2,4(1H,3H)-dione] | 244 ± 74 | 5 | > 10000 | – | solubility [1, 2]: 1 µg/mL; solubility [1, 3]: < 0.5 µg/mL; solubility [1, 4]: 200 µg/mL |
| CCn1c(=O)c2c(nc3n2CCN(Cc2cccc(F)c2)C3)n(C)c1=O [Compound 14g, 3-ethyl-8-(3-fluorobenzyl)-1-methyl-6,7,8,9-tetrahydropyrazino[2,1-f]purine-2,4(1H,3H)-dione] | 85.3 ± 5.5 | – | – | – | solubility ([1]; aqueous solution, aqueous buffer, pH 4, molar value in brackets, read-out: solubility at pH 4): 140 µM; solubility ([1]; aqueous solution, aqueous buffer, pH 4, read-out: solubility at pH 4): 50 µg/mL; solubility ([1]; aqueous solution, aqueous buffer, pH 7.4, molar value in brackets, read-out: solubility at pH 7.4): 84 µM; solubility ([1]; aqueous solution, aqueous buffer, pH 7.4, read-out: solubility at pH 7.4): 40 µg/mL; solubility ([1]; aqueous solution, simulated gastric fluid, pH 1, molar value in brackets, read-out: solubility at pH 1): > 4200 µM; solubility ([1]; aqueous solution, simulated gastric fluid, pH 1, read-out: solubility at pH 1): > 1500 µg/mL |
| CCn1c(=O)c2c(nc3n2CCN(Cc2cc(Br)ccc2F)C3)n(C)c1=O [Compound 14o, 8-(5-bromo-2-fluorobenzyl)-3-ethyl-1-methyl-6,7,8,9-tetrahydropyrazino[2,1-f]purine-2,4(1H,3H)-dione] | 116 ± 27 | 15 | > 10000 | 1700 | – |
| C#CCn1c(=O)c2c(nc3n2CCN(Cc2ccc(Cl)c(Cl)c2)C3)n(C)c1=O [Compound 19a, 8-(3,4-dichlorobenzyl)-1-methyl-3-propargyl-6,7,8,9-tetrahydropyrazino[2,1-f]purine-2,4(1H,3H)-dione] | 967 ± 211 | 12 | > 10000 | 1580 | – |
| Cn1c(=O)c2c(nc3n2CCN(Cc2ccc(Cl)c(Cl)c2)C3)n(C2CC2)c1=O [Compound 17, 8-(3,4-dichlorobenzyl)-1-cyclopropyl-3-methyl-6,7,8,9-tetrahydropyrazino[2,1-f]purine-2,4(1H,3H)-dione] | 1130 | 7 | > 10000 | – | – |
| CCn1c(=O)c2c(nc3n2CCN(Cc2cc(C(F)(F)F)ccc2F)C3)n(CC)c1=O [Compound 15j, 1,3-diethyl-8-(2-fluoro-5-(trifluoromethyl)benzyl)-6,7,8,9-tetrahydropyrazino[2,1-f]purine-2,4(1H,3H)-dione] | 39.4 ± 7.4 | 7 | > 10000 | 781 ± 68 | – |
| CCn1c(=O)n(C)c(=O)c2c1nc1n2CCN(Cc2ccc(Cl)c(Cl)c2)C1 [Compound 16a, 8-(3,4-dichlorobenzyl)-1-ethyl-3-methyl-6,7,8,9-tetrahydropyrazino[2,1-f]purine-2,4(1H,3H)-dione] | 396 ± 154 | 6 | > 10000 | 1620 | – |
| C#CCn1c(=O)c2c(nc3n2CCN(Cc2cc(C(F)(F)F)ccc2Cl)C3)n(C)c1=O [Compound 19b, 8-(2-chloro-5-(trifluoromethyl)benzyl)-1-methyl-3-propargyl-6,7,8,9-tetrahydropyrazino[2,1-f]purine-2,4(1H,3H)-dione] | 110 ± 4 | 5 | > 10000 | 712 ± 129 | – |
